Source: the supplement of paper PMC10307832

Columns and labels:
Test in all cases: relative viability (nuclei count vs DMSO), 5 days (fraction); higher = more cells survive
Serdemetan + Phenformin = compound: c1ccc2c(CCNc3ccc(Nc4ccncc4)cc3)c[nH]c2c1 [Serdemetan] + N=C(N)NC(=N)NCCc1ccccc1 [Phenformin] (partner 250 µM)
Outline: (§1)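 Values are medians from duplicate plates. Each reflects relative viability, defined as the nuclei count of treated wells over that of vehicle wells. Lung cancer cell lines in 1536-well plates were pin-tool dosed one day after seeding with one drug alone or with a fixed anchor-drug dose plus five library-drug doses (not always all listed) in √10 steps, then fixed, stained and imaged at 4× after 5 days.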

Serdemetan + Alpelisib = compound: c1ccc2c(CCNc3ccc(Nc4ccncc4)cc3)c[nH]c2c1 [Serdemetan] + Cc1nc(NC(=O)N2CCC[C@H]2C(N)=O)sc1-c1ccnc(C(C)(C)C(F)(F)F)c1 [Alpelisib] (partner 2 µM)
Outline: as §1

Serdemetan + Tozasertib = compound: c1ccc2c(CCNc3ccc(Nc4ccncc4)cc3)c[nH]c2c1 [Serdemetan] + Cc1cc(Nc2cc(N3CCN(C)CC3)nc(Sc3ccc(NC(=O)C4CC4)cc3)n2)n[nH]1 [Tozasertib] (partner 0.1 µM)
Outline: as §1

Serdemetan + Palbociclib = compound: c1ccc2c(CCNc3ccc(Nc4ccncc4)cc3)c[nH]c2c1 [Serdemetan] + CC(=O)c1c(C)c2cnc(Nc3ccc(N4CCNCC4)cn3)nc2n(C2CCCC2)c1=O [Palbociclib] (partner 0.5 µM)
Outline: as §1

Cell Line | relative viability (Serdemetan + Phenformin; first compound 0.04 µM) | relative viability (Serdemetan + Phenformin; first compound 0.1265 µM) | relative viability (Serdemetan + Phenformin; first compound 0.4 µM) | relative viability (Serdemetan + Phenformin; first compound 1.265 µM) | relative viability (Serdemetan + Phenformin; first compound 4 µM) | relative viability (Serdemetan + Alpelisib; first compound 0.04 µM) | relative viability (Serdemetan + Alpelisib; first compound 0.1265 µM) | relative viability (Serdemetan + Alpelisib; first compound 0.4 µM) | relative viability (Serdemetan + Alpelisib; first compound 1.265 µM) | relative viability (Serdemetan + Alpelisib; first compound 4 µM) | relative viability (Serdemetan + Tozasertib; first compound 0.04 µM) | relative viability (Serdemetan + Tozasertib; first compound 0.1265 µM) | relative viability (Serdemetan + Tozasertib; first compound 0.4 µM) | relative viability (Serdemetan + Tozasertib; first compound 1.265 µM) | relative viability (Serdemetan + Tozasertib; first compound 4 µM) | relative viability (Serdemetan + Palbociclib; first compound 0.04 µM) | relative viability (Serdemetan + Palbociclib; first compound 0.1265 µM) | relative viability (Serdemetan + Palbociclib; first compound 0.4 µM) | relative viability (Serdemetan + Palbociclib; first compound 1.265 µM) | relative viability (Serdemetan + Palbociclib; first compound 4 µM)
HCC-15 | 0.428 | 0.459 | 0.457 | 0.337 | 0.367 | 0.924 | 0.825 | 0.856 | 0.531 | 0.579 | 0.377 | 0.367 | 0.377 | 0.294 | 0.283 | 0.697 | 0.757 | 0.668 | 0.56 | 0.556
HCC-44 | 0.21 | 0.236 | 0.21 | 0.136 | 0.213 | 0.714 | 0.772 | 0.75 | 0.532 | 0.636 | 1 | 1.04 | 0.765 | 0.915 | 0.869 | 0.927 | 0.93 | 0.953 | 0.92 | 0.922
HCC-78 | 0.612 | 0.581 | 0.595 | 0.581 | 0.516 | 0.337 | 0.36 | 0.349 | 0.364 | 0.262 | 0.414 | 0.354 | 0.363 | 0.329 | 0.303 | 0.449 | 0.391 | 0.494 | 0.437 | 0.47
HCC-366 | 0.665 | 0.627 | 0.547 | 0.0583 | 0.0869 | 0.403 | 0.434 | 0.208 | 0.0495 | 0.0462 | 0.134 | 0.0681 | 0.0532 | 0.0456 | 0.042 | 0.351 | 0.281 | 0.0795 | 0.0413 | 0.0782
HCC-827 | 0.415 | 0.406 |  | 0.314 | 0.366 | 0.924 | 0.934 |  | 0.723 | 0.6 | 0.406 | 0.393 |  | 0.297 | 0.308 | 0.454 | 0.448 |  | 0.412 | 0.303
HOP-62 | 0.718 | 0.63 | 0.721 | 0.548 | 0.583 | 0.966 | 0.914 | 0.947 | 0.76 | 0.841 | 0.421 | 0.323 | 0.322 | 0.328 | 0.245 | 0.466 | 0.469 | 0.545 | 0.3 | 0.209
IA-LM |  |  |  |  |  | 0.726 | 0.834 | 0.729 | 0.535 | 0.568 |  |  |  |  |  |  |  |  |  | 
LC-2-ad | 0.559 | 0.589 | 0.556 | 0.496 | 0.579 | 0.987 | 0.804 | 0.803 |  | 0.806 | 0.397 | 0.487 | 0.459 | 0.461 | 0.385 | 0.438 | 0.449 | 0.507 | 0.471 | 0.44
NCI-H522 | 0.669 | 0.669 | 0.67 |  | 0.679 |  |  |  |  |  | 0.554 | 0.575 | 0.44 |  | 0.497 | 1.01 | 0.954 | 0.899 | 0.681 | 0.856
NCI-H596 | 0.812 | 0.692 | 0.735 | 0.63 | 0.438 | 0.477 | 0.498 | 0.481 | 0.369 | 0.298 | 0.825 | 0.787 | 0.774 | 0.513 | 0.34 |  |  |  |  | 
NCI-H1299 |  |  |  |  |  | 0.992 | 0.996 | 1.03 | 0.96 | 0.968 |  |  |  |  |  |  |  |  |  | 
NCI-H1563 | 0.689 | 0.591 | 0.567 | 0.586 | 0.589 | 0.89 | 0.893 | 0.931 | 0.815 | 0.763 |  |  |  |  |  |  |  |  |  | 
NCI-H1648 |  |  |  |  |  |  |  |  |  |  |  | 0.46 | 0.38 | 0.206 | 0.299 |  | 0.233 | 0.242 | 0.219 | 0.212
NCI-H1650 | 0.424 | 0.462 | 0.268 | 0.391 | 0.285 |  |  |  |  |  | 0.415 | 0.483 | 0.405 | 0.389 | 0.351 | 0.318 | 0.275 | 0.282 | 0.257 | 0.262
NCI-H1703 |  |  |  |  |  | 0.389 | 0.345 | 0.306 | 0.277 | 0.374 |  |  |  |  |  |  |  |  |  | 
NCI-H1792 | 0.268 | 0.316 | 0.283 | 0.127 | 0.198 | 0.697 | 0.686 | 0.567 | 0.529 | 0.257 |  |  |  |  |  | 0.661 | 0.7 | 0.596 | 0.395 | 0.56
NCI-H2342 | 0.597 | 0.538 | 0.628 | 0.537 | 0.393 |  |  |  |  |  | 0.607 | 0.553 | 0.605 | 0.493 | 0.408 | 0.528 | 0.494 | 0.508 | 0.481 | 0.489
SW 900 | 0.551 | 0.487 | 0.674 | 0.295 | 0.365 |  |  |  |  |  | 0.494 | 0.413 | 0.441 | 0.329 | 0.359 | 0.615 | 0.58 | 0.59 | 0.451 | 0.361
